Source: patent US9499550B2 (BRISTOL-MYERS SQUIBB COMPANY, priority 2012, dated 2016)
pEC50: −log10 of the molar value.

Columns and labels:
[1] = system: HCV genotype 1a (H77 strain) replicon in HUH-7 cells; experiment: HCV replicon luciferase reporter assay, genotype 1a; format: cell-based; conditions: Hepatitis C virus, Huh-7, 72 h, HCV genotype 1a replicon luciferase assay, 3 days incubation, range class, read-out: LE_1a (EC50, range)
In short: (§1)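 Replicon inhibition for both genotypes was measured as Renilla luciferase signal (EnduRen, 7.5 μM final, 2 h) after 3-day, 37° C exposure of replicon-bearing HUH-7 cells in 4% FCS DMEM, 0.5% DMSO. The 1b construct carries S1179I; the 1a H77 construct carries P1496L and S2204I. Twenty-point, 3-fold dilutions were fitted four-parametrically for EC50, and CC50 was taken from multiplexed Cell Titer-Blue.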

[2] = system: HCV genotype 1b (Con1) replicon in HUH-7 cells; experiment: HCV replicon luciferase reporter assay, genotype 1b; format: cell-based; conditions: Hepatitis C virus, Huh-7, 72 h, HCV genotype 1b replicon luciferase assay, 3 days incubation, range class, read-out: LE_1b (EC50, range)
In short: as §1

| Structure (SMILES) | pEC50 [1] | pEC50 [2] |
| --- | --- | --- |
| COCCOc1cnc(O[C@@H]2C[C@H]3C(=O)N[C@]4(C(=O)NS(=O)(=O)C5CC5)C[C@H]4/C=C\CC[C@H](C)C[C@@H](C)[C@H](NC(=O)OC(C)(C)C)C(=O)N3C2)c2ccc(OC)cc12 [Compound 1154, tert-butyl ((2R,6S,7R,9S,13aS,14aR,16aS,Z)-14a-((cyclopropylsulfonyl)carbamoyl)-2-((6-methoxy-4-(2-methoxyethoxyl)isoquinolin-1-yl)oxy)-7,9-dimethyl-5,16-dioxo-1,2,3,5,6,7,8,9,10,11,13a,14,14a,15,16,16a-hexadecahydrocyclopropa[e]pyrrolo[1,2-a][1,4]diazacyclopentadecin-6-yl)carbamate] | > 8.26 | > 8.26 |
| COCCOc1cnc(O[C@@H]2C[C@H]3C(=O)N[C@]4(C(=O)NS(=O)(=O)C5CC5)C[C@H]4/C=C\CC[C@@H](C)C[C@@H](C)[C@H](NC(=O)OC(C)(C)C)C(=O)N3C2)c2ccc(OC)cc12 [Compound 1155, tert-butyl ((2R,6S,7R,9R,13aS,14aR,16aS,Z)-14a-((cyclopropylsulfonyl)carbamoyl)-2-((6-methoxy-4-(2-methoxyethoxyl)isoquinolin-1-yl)oxy)-7,9-dimethyl-5,16-dioxo-1,2,3,5,6,7,8,9,10,11,13a,14,14a,15,16,16a-hexadecahydrocyclopropa[e]pyrrolo[1,2-a][1,4]diazacyclopentadecin-6-yl)carbamate] | > 8.26 | > 8.26 |
| COCCOc1cnc(O[C@@H]2C[C@H]3C(=O)N[C@]4(C(=O)NS(=O)(=O)C5(C)CC5)C[C@H]4/C=C\CC[C@H](C)C[C@@H](C)[C@H](NC(=O)OC4COC4)C(=O)N3C2)c2ccc(OC)cc12 [Compound 1156, oxetan-3-yl((2R,6S,7R,9S,13aS,14aR,16aS,Z)-2-((6-methoxy-4-(2-methoxyethoxyl)isoquinolin-1-yl)oxy)-7,9-dimethyl-14a-(((1-methylcyclopropyl)sulfonyl)carbamoyl)-5,16-dioxo-1,2,3,5,6,7,8,9,10,11,13a,14,14a,15,16,16a-hexadecahydrocyclopropa[e]pyrrolo[1,2-a][1,4]diazacyclopentadecin-6-yl)carbamate] | 6.99 to 8.32 | 6.99 to 8.32 |
| COCCOc1cnc(O[C@@H]2C[C@H]3C(=O)N[C@]4(C(=O)NS(=O)(=O)C5(C)CC5)C[C@H]4/C=C\CC[C@@H](C)C[C@@H](C)[C@H](NC(=O)OC4COC4)C(=O)N3C2)c2ccc(OC)cc12 [Compound 1157, oxetan-3-yl ((2R,6S,7R,9R,13aS,14aR,16aS,Z)-2-((6-methoxy-4-(2-methoxyethoxyl)isoquinolin-1-yl)oxy)-7,9-dimethyl-14a-(((1-methylcyclopropyl)sulfonyl)carbamoyl)-5,16-dioxo-1,2,3,5,6,7,8,9,10,11,13a,14,14a,15,16,16a-hexadecahydrocyclopropa[e]pyrrolo[1,2-a][1,4]diazacyclopentadecin-6-yl)carbamate] | 6.99 to 8.32 | 6.99 to 8.32 |
| COCCOc1cnc(O[C@@H]2C[C@H]3C(=O)N[C@]4(C(=O)NS(=O)(=O)C5CC5)C[C@H]4/C=C\CC[C@H](C)C[C@@H](C)[C@H](NC(=O)OC4COC4)C(=O)N3C2)c2ccc(OC)cc12 [Compound 1158, oxetan-3-yl ((2R,6S,7R,9S,13aS,14aR,16aS,Z)-14a-((cyclopropylsulfonyl)carbamoyl)-2-((6-methoxy-4-(2-methoxyethoxyl)isoquinolin-1-yl)oxy)-7,9-dimethyl-5,16-dioxo-1,2,3,5,6,7,8,9,10,11,13a,14,14a,15,16,16a-hexadecahydrocyclopropa[e]pyrrolo[1,2-a][1,4]diazacyclopentadecin-6-yl)carbamate] | 6.99 to 8.32 | 6.99 to 8.32 |
| COCCOc1cnc(O[C@@H]2C[C@H]3C(=O)N[C@]4(C(=O)NS(=O)(=O)C5CC5)C[C@H]4/C=C\CC[C@@H](C)C[C@@H](C)[C@H](NC(=O)OC4COC4)C(=O)N3C2)c2ccc(OC)cc12 [Compound 1159, oxetan-3-yl ((2R,6S,7R,9R,13aS,14aR,16aS,Z)-14a-((cyclopropylsulfonyl)carbamoyl)-2-((6-methoxy-4-(2-methoxyethoxyl)isoquinolin-1-yl)oxy)-7,9-dimethyl-5,16-dioxo-1,2,3,5,6,7,8,9,10,11,13a,14,14a,15,16,16a-hexadecahydrocyclopropa[e]pyrrolo[1,2-a][1,4]diazacyclopentadecin-6-yl)carbamate] | 6.99 to 8.32 | 6.99 to 8.32 |
| COc1cnc(O[C@@H]2C[C@H]3C(=O)N[C@]4(C(=O)NS(=O)(=O)C5CC5)C[C@H]4/C=C\CC[C@H](C)C[C@@H](C)[C@H](NC(=O)OC(C)(C)C)C(=O)N3C2)c2cc(Cl)ccc12 [Compound 1160, tert-butyl ((2R,6S,7R,9S,13aS,14aR,16aS,Z)-2-((7-chloro-4-methoxyisoquinolin-1-yl)oxy)-14a-((cyclopropylsulfonyl)carbamoyl)-7,9-dimethyl-5,16-dioxo-1,2,3,5,6,7,8,9,10,11,13a,14,14a,15,16,16a-hexadecahydrocyclopropa[e]pyrrolo[1,2-a][1,4]diazacyclopentadecin-6-yl)carbamate] | 6.99 to 8.32 | > 8.26 |
| COc1cnc(O[C@@H]2C[C@H]3C(=O)N[C@]4(C(=O)NS(=O)(=O)C5CC5)C[C@H]4/C=C\CC[C@@H](C)C[C@@H](C)[C@H](NC(=O)OC(C)(C)C)C(=O)N3C2)c2cc(Cl)ccc12 [Compound 1161, tert-butyl ((2R,6S,7R,9R,13aS,14aR,16aS,Z)-2-((7-chloro-4-methoxyisoquinolin-1-yl)oxy)-14a-((cyclopropylsulfonyl)carbamoyl)-7,9-dimethyl-5,16-dioxo-1,2,3,5,6,7,8,9,10,11,13a,14,14a,15,16,16a-hexadecahydrocyclopropa[e]pyrrolo[1,2-a][1,4]diazacyclopentadecin-6-yl)carbamate] | > 8.26 | > 8.26 |
| COc1ccc2c(O[C@@H]3C[C@H]4C(=O)N[C@]5(C(=O)NS(=O)(=O)C6(CF)CC6)C[C@H]5/C=C\CC[C@H](C)C[C@@H](C)[C@H](NC(=O)OC(C)(C)C)C(=O)N4C3)nc(Cl)cc2c1 [Compound 1162, tert-butyl ((2R,6S,7R,9S,13aS,14aR,16aS,Z)-2-((3-chloro-6-methoxyisoquinolin-1-yl)oxy)-14a-(((1-(fluoromethyl)cyclopropyl)sulfonyl)carbamoyl)-7,9-dimethyl-5,16-dioxo-1,2,3,5,6,7,8,9,10,11,13a,14,14a,15,16,16a-hexadecahydrocyclopropa[e]pyrrolo[1,2-a][1,4]diazacyclopentadecin-6-yl)carbamate] | 6.99 to 8.32 | 6.99 to 8.32 |
| COc1ccc2c(O[C@@H]3C[C@H]4C(=O)N[C@]5(C(=O)NS(=O)(=O)C6(CF)CC6)C[C@H]5/C=C\CC[C@@H](C)C[C@@H](C)[C@H](NC(=O)OC(C)(C)C)C(=O)N4C3)nc(Cl)cc2c1 [Compound 1163, tert-butyl ((2R,6S,7R,9R,13aS,14aR,16aS,Z)-2-((3-chloro-6-methoxyisoquinolin-1-yl)oxy)-14a-(((1-(fluoromethyl)cyclopropyl)sulfonyl)carbamoyl)-7,9-dimethyl-5,16-dioxo-1,2,3,5,6,7,8,9,10,11,13a,14,14a,15,16,16a-hexadecahydrocyclopropa[e]pyrrolo[1,2-a][1,4]diazacyclopentadecin-6-yl)carbamate] | > 8.26 | > 8.26 |
| COc1ccc2c(O[C@@H]3C[C@H]4C(=O)N[C@]5(C(=O)NS(=O)(=O)C6(CF)CC6)C[C@H]5/C=C\CC[C@H](C)C[C@@H](C)[C@H](NC(=O)OC(C)(C)C(F)(F)F)C(=O)N4C3)nc(Cl)cc2c1 [Compound 1164, 1,1,1-trifluoro-2-methylpropan-2-yl((2R,6S,7R,9S,13aS,14aR,16aS,Z)-2-((3-chloro-6-methoxyisoquinolin-1-yl)oxy)-14a-(((1-(fluoromethyl)cyclopropyl)sulfonyl)carbamoyl)-7,9-dimethyl-5,16-dioxo-1,2,3,5,6,7,8,9,10,11,13a,14,14a,15,16,16a-hexadecahydrocyclopropa[e]pyrrolo[1,2-a][1,4]diazacyclopentadecin-6-yl)carbamate] | 6.99 to 8.32 | 6.99 to 8.32 |
| COc1ccc2c(O[C@@H]3C[C@H]4C(=O)N[C@]5(C(=O)NS(=O)(=O)C6(CF)CC6)C[C@H]5/C=C\CC[C@@H](C)C[C@@H](C)[C@H](NC(=O)OC(C)(C)C(F)(F)F)C(=O)N4C3)nc(Cl)cc2c1 [Compound 1165, 1,1,1-trifluoro-2-methylpropan-2-yl((2R,6S,7R,9R,13aS,14aR,16aS,Z)-2-((3-chloro-6-methoxyisoquinolin-1-yl)oxy)-14a-(((1-(fluoromethyl)cyclopropyl)sulfonyl)carbamoyl)-7,9-dimethyl-5,16-dioxo-1,2,3,5,6,7,8,9,10,11,13a,14,14a,15,16,16a-hexadecahydrocyclopropa[e]pyrrolo[1,2-a][1,4]diazacyclopentadecin-6-yl)carbamate] | > 8.26 | > 8.26 |
| COc1ccc2c(O[C@@H]3C[C@H]4C(=O)N[C@]5(C(=O)NS(=O)(=O)C6(CF)CC6)C[C@H]5/C=C\CC[C@H](C)C[C@@H](C)[C@H](NC(=O)OC(C)(C)C(C)(F)F)C(=O)N4C3)ncc(C(F)(F)F)c2c1 [Compound 1166, 3,3-difluoro-2-methylbutan-2-yl((2R,6S,7R,9S,13aS,14aR,16aS,Z)-14a-(((1-(fluoromethyl)cyclopropyl)sulfonyl)carbamoyl)-2-((6-methoxy-4-(trifluoromethyl)isoquinolin-1-yl)oxy)-7,9-dimethyl-5,16-dioxo-1,2,3,5,6,7,8,9,10,11,13a,14,14a,15,16,16a-hexadecahydrocyclopropa[e]pyrrolo[1,2-a][1,4]diazacyclopentadecin-6-yl)carbamate] | 6.99 to 8.32 | 6.99 to 8.32 |
